In the NIST ThermoML archive (doi:10.1016/j.jct.2005.10.011):
Numbers after ± are expanded uncertainties.

How the values were obtained:
[1] = 298.15 K, 101.33 kPa, Liquid; for viscosity: Capillary tube (Ostwald / Ubbelohde) method
[2] = isobaric coefficient of expansion; details: 298.15 K; 101.33 kPa; Liquid; vibrating tube densimeter
[3] = xn = mol fraction of the nth substance listed; details: 298.15 K, 101 kPa, Liquid

CCCCCCCC [octane]
Details	isobaric coefficient of expansion	mass density [kg/m3]	viscosity [mPa·s]
[1]	–	698.59 ± 1.7	0.514 ± 0.007
[2]	0.00115 ± 2e-05 1/K	–	–

Cc1ccccc1 [toluene] + CCCCCCC
[3]
Details	mass density [kg/m3]
x1 = 0.0398	678.24 ± 26
x1 = 0.1999	693.04 ± 25
x1 = 0.2791	721.62 ± 23
x1 = 0.3596	736.18 ± 22
x1 = 0.4416	764.46 ± 20
x1 = 0.6048	779.21 ± 19
x1 = 0.6825	793.71 ± 18
x1 = 0.7593	808.12 ± 18
x1 = 0.8463	823.09 ± 17
x1 = 0.9132	837.25 ± 16

CCCCCC [hexane] + Cc1ccccc1
[3]
Details	mass density [kg/m3]
x2 = 0.0406	657.47 ± 0.92
x2 = 0.2028	690.93 ± 0.86
x2 = 0.2804	706.95 ± 0.84
x2 = 0.3596	723.29 ± 0.81
x2 = 0.4423	740.35 ± 0.79
x2 = 0.5997	772.81 ± 0.74
x2 = 0.6757	788.5 ± 0.71
x2 = 0.7597	805.83 ± 0.69
x2 = 0.8412	822.63 ± 0.67
x2 = 0.9199	838.87 ± 0.65

CCCCCCCC [octane] + Cc1ccccc1
[3]
Details	mass density [kg/m3]
x2 = 0.0398	692.41 ± 1
x2 = 0.1999	718.64 ± 0.98
x2 = 0.2791	731.62 ± 0.95
x2 = 0.3596	744.8 ± 0.92
x2 = 0.4416	758.23 ± 0.89
x2 = 0.6048	784.96 ± 0.82
x2 = 0.6825	797.69 ± 0.78
x2 = 0.7593	810.27 ± 0.75
x2 = 0.8463	824.52 ± 0.71
x2 = 0.9132	835.49 ± 0.67

CCCCCCCCCC [decane]
Details	isobaric coefficient of expansion	mass density [kg/m3]	viscosity [mPa·s]
[1]	–	726.29 ± 0.81	0.861 ± 0.008
[2]	0.00104 ± 2e-05 1/K	–	–

CCCCCCCCCC [decane] + Cc1ccccc1
[3]
Details	mass density [kg/m3]
x2 = 0.0405	730.61 ± 0.8
x2 = 0.1975	740.67 ± 0.78
x2 = 0.2817	747.82 ± 0.77
x2 = 0.3619	755.75 ± 0.76
x2 = 0.4394	764.48 ± 0.75
x2 = 0.6	785.86 ± 0.72
x2 = 0.6811	798.34 ± 0.7
x2 = 0.7615	811.84 ± 0.68
x2 = 0.84	826.07 ± 0.66
x2 = 0.92	841.69 ± 0.64

CCCCCC [hexane]
Details	isobaric coefficient of expansion	mass density [kg/m3]	viscosity [mPa·s]
[1]	–	655.07 ± 0.93	0.295 ± 0.005
[2]	0.00138 ± 3e-05 1/K	–	–

CCCCC [pentane]
Details	isobaric coefficient of expansion	mass density [kg/m3]	viscosity [mPa·s]
[1]	–	621.22 ± 0.99	0.216 ± 0.005
[2]	0.0016 ± 3e-05 1/K	–	–

CCCCC [pentane] + Cc1ccccc1
[3]
Details	mass density [kg/m3]
x2 = 0.0415	629.87 ± 0.96
x2 = 0.2011	668.27 ± 0.9
x2 = 0.2799	687.21 ± 0.87
x2 = 0.3647	707.61 ± 0.84
x2 = 0.4341	724.3 ± 0.81
x2 = 0.6011	764.45 ± 0.75
x2 = 0.6821	783.95 ± 0.72
x2 = 0.7502	800.32 ± 0.7
x2 = 0.8213	817.43 ± 0.67
x2 = 0.9137	839.65 ± 0.65

CCCCCCC [heptane]
Details	isobaric coefficient of expansion	mass density [kg/m3]	viscosity [mPa·s]
[1]	–	679.69 ± 0.89	0.395 ± 0.005
[2]	0.00124 ± 2e-05 1/K	–	–

CCCCCCCCC [nonane]
Details	isobaric coefficient of expansion	mass density [kg/m3]	viscosity [mPa·s]
[1]	–	714.01 ± 1.7	0.665 ± 0.009
[2]	0.00108 ± 2e-05 1/K	–	–

CCCCCCCCC [nonane] + Cc1ccccc1
[3]
Details	mass density [kg/m3]
x2 = 0.0396	719.17 ± 1
x2 = 0.1938	731.3 ± 0.97
x2 = 0.2815	739.97 ± 0.94
x2 = 0.3621	749.08 ± 0.92
x2 = 0.4429	759.3 ± 0.89
x2 = 0.6	782.29 ± 0.82
x2 = 0.6627	792.62 ± 0.79
x2 = 0.7595	809.87 ± 0.75
x2 = 0.8399	825.37 ± 0.71
x2 = 0.9168	841.23 ± 0.67

Cc1ccccc1 [toluene]
Details	isobaric coefficient of expansion	mass density [kg/m3]	viscosity [mPa·s]
[1]	–	862.19 ± 0.62	0.552 ± 0.006
[2]	0.00109 ± 2e-05 1/K	–	–
